Test results as given in patent publication US20230312550A1, “N-(2-(4-CYANOTHIAZOLIDIN-3-YL)-2-OXOETHYL)-QUINOLINE-4-CARBOXAMIDES” (AstraZeneca AB, priority 2020, published 2023).

Experiments:
[1] = target: Prolyl endopeptidase, Prolyl Oligopeptidase (hPREP) (Homo sapiens (Human), UniProt P48147); test: hPrep inhibition assay; format: biochemical; details: hPREP 0.6 nM, Z-Gly-Pro-amino-methylcoumarin 50 μM; read-out: PREP IC50
Description: Compounds were tested in a biochemical inhibition assay using Prolyl endopeptidase, Prolyl Oligopeptidase (hPREP) enzyme at 0.6 nM FAC (R&D Systems, 4308-SE) and the substrate Z-Gly-Pro-amino-methylcoumarin (Bachem, I-1145) at 50 μM FAC. 384 Low volume black plates (Greiner #784076) were used. […] Plates were incubated for 15 min at rt in dark. 4 μL, 100 μM substrate solution (25 mM Tris HCl, 250 mM NaCl, 0.01% Triton X-100, 5 mM Glutathione, pH 7.5) was added to each well. Plates were centrifuged at 1000 rpm and incubated for 20 min at rt in dark. The plates were read on a PHERAstar® reader with excitation 340 nm and emission 460 nm. Data were analyzed in Genedata Screener®. IC50 values were determined by plotting % inhibition versus log compound concentration and using a one site dose response model.

hFAP (M39-A757) = hFAP (M39-A757) (Homo sapiens (Human), UniProt Q12884); test: hFAP binding assay (surface plasmon resonance); details: SPR, 20° C.; for hFAP Binding assay k(off) / hFAP Binding assay k(on): single cycle kinetics
hFAP (M39-A757), sequence (Q12884 39-757): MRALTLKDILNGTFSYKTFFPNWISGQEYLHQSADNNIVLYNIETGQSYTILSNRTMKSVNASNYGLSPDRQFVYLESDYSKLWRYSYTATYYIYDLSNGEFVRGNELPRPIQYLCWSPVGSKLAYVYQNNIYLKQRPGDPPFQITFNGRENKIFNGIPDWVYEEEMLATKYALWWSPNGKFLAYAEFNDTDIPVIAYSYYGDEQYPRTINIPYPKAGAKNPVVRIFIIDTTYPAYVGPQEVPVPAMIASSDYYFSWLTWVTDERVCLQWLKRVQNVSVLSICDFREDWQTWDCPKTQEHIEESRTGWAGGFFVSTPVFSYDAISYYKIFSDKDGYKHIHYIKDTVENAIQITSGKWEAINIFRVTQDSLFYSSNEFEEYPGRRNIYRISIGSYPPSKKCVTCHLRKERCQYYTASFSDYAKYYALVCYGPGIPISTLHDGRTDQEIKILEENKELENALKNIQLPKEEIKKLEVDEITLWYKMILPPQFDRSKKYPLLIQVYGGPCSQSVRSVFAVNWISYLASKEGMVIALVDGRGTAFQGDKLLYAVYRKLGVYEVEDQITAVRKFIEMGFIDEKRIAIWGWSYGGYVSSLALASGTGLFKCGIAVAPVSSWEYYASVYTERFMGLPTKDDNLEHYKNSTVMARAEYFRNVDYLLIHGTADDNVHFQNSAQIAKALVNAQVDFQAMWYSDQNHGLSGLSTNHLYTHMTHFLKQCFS

[2] = target: human Fibroblast activation protein alpha (hFAP) (Homo sapiens (Human), UniProt Q12884); test: hFAP inhibition assay (tight binders); format: biochemical; details: Ala-Pro-AMC 20 μM, n = 1 or geometric mean n = 2-6; note: hFAP 2.4 pM
human Fibroblast activation protein alpha (hFAP), sequence (Q12884 38-760): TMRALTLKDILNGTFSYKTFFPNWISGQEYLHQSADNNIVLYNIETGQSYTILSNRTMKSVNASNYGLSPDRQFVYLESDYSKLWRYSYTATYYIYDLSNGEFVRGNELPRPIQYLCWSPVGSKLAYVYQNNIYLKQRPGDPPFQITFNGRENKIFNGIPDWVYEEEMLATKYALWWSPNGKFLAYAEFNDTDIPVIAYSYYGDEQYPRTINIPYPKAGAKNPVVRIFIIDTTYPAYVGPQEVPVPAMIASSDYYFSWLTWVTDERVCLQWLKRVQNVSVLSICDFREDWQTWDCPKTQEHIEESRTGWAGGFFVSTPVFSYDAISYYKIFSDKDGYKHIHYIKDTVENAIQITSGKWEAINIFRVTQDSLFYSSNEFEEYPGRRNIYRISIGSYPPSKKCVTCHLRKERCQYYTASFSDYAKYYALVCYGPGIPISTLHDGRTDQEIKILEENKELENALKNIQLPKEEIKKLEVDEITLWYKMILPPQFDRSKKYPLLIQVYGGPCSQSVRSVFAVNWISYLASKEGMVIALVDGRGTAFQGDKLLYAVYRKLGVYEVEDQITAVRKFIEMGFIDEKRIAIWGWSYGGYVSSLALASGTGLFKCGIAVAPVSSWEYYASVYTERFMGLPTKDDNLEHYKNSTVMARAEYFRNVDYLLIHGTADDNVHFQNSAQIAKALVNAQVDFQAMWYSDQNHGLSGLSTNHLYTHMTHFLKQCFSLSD
Description: The plates were read on a PHERAstar® reader with excitation 340 nm and emission 460 nm. Data were analyzed in Genedata Screener®. IC50 values were determined by plotting % inhibition versus log compound concentration and using a one site dose response model.

Prolyl endopeptidase, Prolyl Oligopeptidase (hPREP), sequence (P48147 whole entry): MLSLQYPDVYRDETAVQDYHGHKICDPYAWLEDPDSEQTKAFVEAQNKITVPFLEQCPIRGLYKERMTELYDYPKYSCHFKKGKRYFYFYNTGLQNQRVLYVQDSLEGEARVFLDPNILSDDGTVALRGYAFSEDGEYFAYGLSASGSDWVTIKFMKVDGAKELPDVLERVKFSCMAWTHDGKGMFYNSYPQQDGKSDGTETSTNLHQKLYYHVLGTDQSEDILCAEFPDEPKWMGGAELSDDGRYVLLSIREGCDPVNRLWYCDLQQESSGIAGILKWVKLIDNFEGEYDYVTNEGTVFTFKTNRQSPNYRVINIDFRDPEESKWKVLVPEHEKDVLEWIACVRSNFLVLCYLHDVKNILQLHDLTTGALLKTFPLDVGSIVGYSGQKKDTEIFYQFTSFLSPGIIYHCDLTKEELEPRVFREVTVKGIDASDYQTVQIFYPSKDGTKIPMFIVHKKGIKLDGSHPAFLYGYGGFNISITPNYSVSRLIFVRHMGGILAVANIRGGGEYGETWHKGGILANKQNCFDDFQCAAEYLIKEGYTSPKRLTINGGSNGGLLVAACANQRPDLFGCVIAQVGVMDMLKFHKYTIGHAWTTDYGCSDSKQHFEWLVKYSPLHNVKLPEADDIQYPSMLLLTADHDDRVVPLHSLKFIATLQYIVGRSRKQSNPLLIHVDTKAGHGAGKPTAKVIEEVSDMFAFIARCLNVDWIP

| IC50 [1] | hFAP Binding assay k(off) (hFAP (M39-A757)) | hFAP Binding assay k(on) (hFAP (M39-A757)) | Kd (hFAP (M39-A757); n = 1 or geometric mean n = 2-4) | IC50 [2] | Compound |
| --- | --- | --- | --- | --- | --- |
| 5.2 nM |  |  |  |  | Cc1ccc2c(C(=O)NCC(=O)N3CSC[C@H]3C#N)ccnc2c1 [B, (R)—N-(2-(4-cyanothiazolidin-3-yl)-2-oxoethyl)-7-methylquinoline-4-carboxamide, reference compound] |
| 140 nM |  |  |  |  | N#C[C@@H]1CSCN1C(=O)CNC(=O)c1ccnc2ccc(N3CCCC3=O)cc12 [Example 11, (R)—N-(2-(4-Cyanothiazolidin-3-yl)-2-oxoethyl)-6-(2-oxopyrrolidin-1-yl)-quinoline-4-carboxamide] |
| 470 nM | 0.000047 s⁻¹ | 940000 M⁻¹ s⁻¹ |  |  | CC1(C)CN(c2ccc3nccc(C(=O)NCC(=O)N4CSC[C@H]4C#N)c3c2)C1 [Example 22, (R)—N-(2-(4-Cyanothiazolidin-3-yl)-2-oxoethyl)-6-(3,3-dimethylazetidin-1-yl)quinoline-4-carboxamide] |
| 270 nM | 0.00016 s⁻¹ | 5600000 M⁻¹ s⁻¹ |  |  | N#C[C@@H]1CSCN1C(=O)CNC(=O)c1ccnc2ccc(N3CCC(F)(F)C3)cc12 [Example 47, (R)—N-(2-(4-Cyanothiazolidin-3-yl)-2-oxoethyl)-6-(3,3-difluoropyrrolidin-1-yl)quinoline-4-carboxamide] |
| 890 nM | 0.00010 s⁻¹ | 880000 M⁻¹ s⁻¹ |  |  | C[C@H]1CN(c2ccc3nccc(C(=O)NCC(=O)N4CSC[C@H]4C#N)c3c2)C[C@H](C)O1 [Example 78, N-(2-((R)-4-Cyanothiazolidin-3-yl)-2-oxoethyl)-6-((2S,6S)-2,6-dimethyl-morpholino)quinoline-4-carboxamide] |
| 1700 nM | 0.000063 s⁻¹ | 1400000 M⁻¹ s⁻¹ |  |  | C[C@H]1OCCN(c2ccc3nccc(C(=O)NCC(=O)N4CSC[C@H]4C#N)c3c2)[C@H]1C [Example 81, N-(2-((R)-4-Cyanothiazolidin-3-yl)-2-oxoethyl)-6-((2R,3S)-2,3-dimethyl-morpholino)quinoline-4-carboxamide] |
| 640 nM | 0.000064 s⁻¹ | 1700000 M⁻¹ s⁻¹ |  |  | C[C@@H]1[C@@H](C)OCCN1c1ccc2nccc(C(=O)NCC(=O)N3CSC[C@H]3C#N)c2c1 [Example 83, N-(2-((R)-4-Cyanothiazolidin-3-yl)-2-oxoethyl)-6-((2R,3R)-2,3-dimethyl-morpholino)quinoline-4-carboxamide] |
| 760 nM | 0.00011 s⁻¹ | 2800000 M⁻¹ s⁻¹ |  |  | C[C@@H]1CN(c2ccc3nccc(C(=O)NCC(=O)N4CSC[C@H]4C#N)c3c2)[C@H](C)CO1 [Example 87, N-(2-((R)-4-Cyanothiazolidin-3-yl)-2-oxoethyl)-6-((2R,5R)-2,5-dimethyl-morpholino)quinoline-4-carboxamide] |
| 1300 nM | 0.00015 s⁻¹ | 3600000 M⁻¹ s⁻¹ |  |  | COC[C@H]1COCCN1c1ccc2nccc(C(=O)NCC(=O)N3CSC[C@H]3C#N)c2c1 [Example 89, N-(2-((R)-4-Cyanothiazolidin-3-yl)-2-oxoethyl)-6-((S)-3-(methoxymethyl)-morpholino)quinoline-4-carboxamide] |
| 260 nM | 0.00021 s⁻¹ | 3200000 M⁻¹ s⁻¹ |  |  | N#C[C@@H]1CSCN1C(=O)CNC(=O)c1ccnc2ccc(N3CCCOCC3)cc12 [Example 91, (R)—N-(2-(4-Cyanothiazolidin-3-yl)-2-oxoethyl)-6-(1,4-oxazepan-4-yl)-quinoline-4-carboxamide] |
| 680 nM | 0.000080 s⁻¹ | 2000000 M⁻¹ s⁻¹ |  |  | C[C@H]1COCCN1c1ccc2nccc(C(=O)NCC(=O)N3CSC[C@H]3C#N)c2c1 [Example 102, N-(2-((R)-4-Cyanothiazolidin-3-yl)-2-oxoethyl)-6-((S)-3-methyl-morpholino)quinoline-4-carboxamide] |
| 1100 nM | 0.00016 s⁻¹ | 1900000 M⁻¹ s⁻¹ |  |  | CC1(C)COCCN1c1ccc2nccc(C(=O)NCC(=O)N3CSC[C@H]3C#N)c2c1 [Example 107, (R)—N-(2-(4-Cyanothiazolidin-3-yl)-2-oxoethyl)-6-(3,3-dimethyl-morpholino)quinoline-4-carboxamide] |
| 1000 nM | 0.000050 s⁻¹ | 1400000 M⁻¹ s⁻¹ |  |  | C[C@@H]1COCCN1c1ccc2nccc(C(=O)NCC(=O)N3CSC[C@H]3C#N)c2c1 [Example 108, N-(2-((R)-4-Cyanothiazolidin-3-yl)-2-oxoethyl)-6-((R)-3-methyl-morpholino)quinoline-4-carboxamide] |
|  | 0.0099 s⁻¹ | 1200000 M⁻¹ s⁻¹ |  |  | Cc1cc(C(=O)NCC(=O)N2CSC[C@H]2C#N)c2cc(N3CCOCC3)ccc2n1 [Example 109, (R)—N-(2-(4-Cyanothiazolidin-3-yl)-2-oxoethyl)-2-methyl-6-morpholino-quinoline-4-carboxamide] |
| 330 nM | 0.00012 s⁻¹ | 1400000 M⁻¹ s⁻¹ |  |  | Cn1cc(-c2ccc3nccc(C(=O)NCC(=O)N4CSC[C@H]4C#N)c3c2)cn1 [Example 129, (R)—N-(2-(4-Cyanothiazolidin-3-yl)-2-oxoethyl)-6-(1-methyl-1H-pyrazol-4-yl)quinoline-4-carboxamide] |
| 470 nM | 0.000075 s⁻¹ | 2500000 M⁻¹ s⁻¹ |  |  | CCC1(F)CN(c2ccc3nccc(C(=O)NCC(=O)N4CSC[C@H]4C#N)c3c2)C1 [Example 138, (R)—N-(2-(4-Cyanothiazolidin-3-yl)-2-oxoethyl)-6-(3-ethyl-3-fluoro-azetidin-1-yl)quinoline-4-carboxamide] |
| 690 nM | 0.000014 s⁻¹ | 1000000 M⁻¹ s⁻¹ |  |  | CCOC1(C)CN(c2ccc3nccc(C(=O)NCC(=O)N4CSC[C@H]4C#N)c3c2)C1 [Example 152, (R)—N-(2-(4-Cyanothiazolidin-3-yl)-2-oxoethyl)-6-(3-ethoxy-3-methyl-azetidin-1-yl)quinoline-4-carboxamide] |
| 540 nM | 0.000085 s⁻¹ | 5300000 M⁻¹ s⁻¹ |  |  | N#C[C@@H]1CSCN1C(=O)CNC(=O)c1ccnc2ccc(N3CC4(CCO4)C3)cc12 [Example 153, (R)—N-(2-(4-Cyanothiazolidin-3-yl)-2-oxoethyl)-6-(1-oxa-6-azaspiro[3.3]heptan-6-yl)quinoline-4-carboxamide] |
| 630 nM | 0.000048 s⁻¹ | 1600000 M⁻¹ s⁻¹ | 0.032 nM | 0.16 nM | C[C@]1(O)CCN(c2ccc3nccc(C(=O)NCC(=O)N4CSC[C@H]4C#N)c3c2)C1 [Example 168, N-(2-((R)-4-Cyanothiazolidin-3-yl)-2-oxoethyl)-6-((S)-3-hydroxy-3-methylpyrrolidin-1-yl)quinoline-4-carboxamide] |
| 1600 nM | 0.000027 s⁻¹ | 180000 M⁻¹ s⁻¹ |  |  | CC(=O)NCC1(C)CN(c2ccc3nccc(C(=O)NCC(=O)N4CSC[C@H]4C#N)c3c2)C1 [Example 181, (R)-6-(3-(Acetamidomethyl)-3-methylazetidin-1-yl)-N-(2-(4-cyano-thiazolidin-3-yl)-2-oxoethyl)quinoline-4-carboxamide] |
| 390 nM | 0.000050 s⁻¹ | 1600000 M⁻¹ s⁻¹ |  |  | N#C[C@@H]1CSCN1C(=O)CNC(=O)c1ccnc2ccc(N3CC[C@@H](CO)C3)cc12 [Example 220, N-(2-((R)-4-Cyanothiazolidin-3-yl)-2-oxoethyl)-6-((R)-3-(hydroxymethyl)-pyrrolidin-1-yl)quinoline-4-carboxamide] |
| 410 nM | 0.000046 s⁻¹ | 8500000 M⁻¹ s⁻¹ |  |  | N#C[C@@H]1CSCN1C(=O)CNC(=O)c1ccnc2ccc(N3CC[C@H](CO)C3)cc12 [Example 221, N-(2-((R)-4-Cyanothiazolidin-3-yl)-2-oxoethyl)-6-((S)-3-(hydroxymethyl)-pyrrolidin-1-yl)quinoline-4-carboxamide] |
